Source: patent US20160160232A1, “ALS INHIBITOR HERBICIDE TOLERANT MUTANT PLANTS” (priority 2013, published 2016)

Experiments:
[1] = tested on: oilseed rape homozygous for HETO133 and HETO134; assay: Further field trial, phytotoxicity (Table 3); format: in vivo, Brassica napus; conditions: g ai/ha: IMAZAMOX 40, BISPYRIBAC-SODIUM 50, PROPOXYCARBAZONE-SODIUM 70, MESOSULFURON-METHYL 60, PYROXSULAM 12.5 with CLOQUINTOCET-MEXYL 37.5, each with RAPESEED OIL METHYLATED 366.5
Description: (§1) In a further field trial, seeds of spring oilseed rape comprising HETO133 and HETO134, and wild type (WT) seeds were sown in a field. For the untreated plants, biomass was determined at 9, 16 and 24 days after application (DAA) as compared to a control variety. For the treated plants, phytotoxicity was assessed at 9, 16 and 24 days after application (DAA) according to a scale from 0 to 100%. For both wild-type and HETO133-HETO134, no thinning was observed.

[2] = tested on: wild-type (WT) oilseed rape; assay: Further field trial, phytotoxicity (Table 3); format: in vivo, Brassica napus; conditions: g ai/ha: IMAZAMOX 40, BISPYRIBAC-SODIUM 50, PROPOXYCARBAZONE-SODIUM 70, MESOSULFURON-METHYL 60, PYROXSULAM 12.5 with CLOQUINTOCET-MEXYL 37.5, each with RAPESEED OIL METHYLATED 366.5
Description: as §1

[3] = tested on: wild-type segregant (WTS) oilseed rape; assay: Field trial, visible phytotoxicity (Table 2); format: in vivo, Brassica napus; conditions: applied at BBCH 14, 200 L/ha water, g ai/ha: Foramsulfuron 25, TCM 15, Iodosulfuron 7, Mesosulfuron 60, Amidosulfuron 30, Ethoxysulfuron 60, Imazamox 40, Metosulam 30, Bispyribac 50, Nicosulfuron 60, Metsulfuron 8, Propoxycarbazone 70, Pyroxsulam 50, Tribenuron 30, Rimsulfuron 12.5, Flucarbazone 40, Thifensulfuron 7.5
From the text: (§2) Seeds of spring oilseed rape homozygous for HETO133 and HETO134 were sown in a field according to typical practical agricultural methods. The registered spring oilseed rape variety ABILITY, the wild-type segregant (WTS), and plants comprising a P197S mutation on ALS I and a W574L mutation on ALS III (P197S-W574L) served as a comparison. All plants were cultivated up to BBCH stage 14 (four true leaves of the oilseed rape plants). Afterwards, the herbicides mentioned in table 2 have been applied to the oilseed rape plants by using specific spray equipment for small plot applications. The water amount used was 200 L/ha.

[4] = tested on: spring oilseed rape variety ABILITY; assay: Field trial, visible phytotoxicity (Table 2); format: in vivo, Brassica napus; conditions: applied at BBCH 14, 200 L/ha water, g ai/ha: Foramsulfuron 25, TCM 15, Iodosulfuron 7, Mesosulfuron 60, Amidosulfuron 30, Ethoxysulfuron 60, Imazamox 40, Metosulam 30, Bispyribac 50, Nicosulfuron 60, Metsulfuron 8, Propoxycarbazone 70, Pyroxsulam 50, Tribenuron 30, Rimsulfuron 12.5, Flucarbazone 40, Thifensulfuron 7.5
From the text: as §2

[5] = tested on: oilseed rape comprising a P197S mutation on ALS I and a W574L mutation on ALS III (P197S-W574L); assay: Field trial, visible phytotoxicity (Table 2); format: in vivo, Brassica napus; conditions: applied at BBCH 14, 200 L/ha water, g ai/ha: Foramsulfuron 25, TCM 15, Iodosulfuron 7, Mesosulfuron 60, Amidosulfuron 30, Ethoxysulfuron 60, Imazamox 40, Metosulam 30, Bispyribac 50, Nicosulfuron 60, Metsulfuron 8, Propoxycarbazone 70, Pyroxsulam 50, Tribenuron 30, Rimsulfuron 12.5, Flucarbazone 40, Thifensulfuron 7.5
From the text: as §2

[6] = tested on: oilseed rape homozygous for HETO133 and HETO134; assay: Field trial, visible phytotoxicity (Table 2); format: in vivo, Brassica napus; conditions: applied at BBCH 14, 200 L/ha water, g ai/ha: Foramsulfuron 25, TCM 15, Iodosulfuron 7, Mesosulfuron 60, Amidosulfuron 30, Ethoxysulfuron 60, Imazamox 40, Metosulam 30, Bispyribac 50, Nicosulfuron 60, Metsulfuron 8, Propoxycarbazone 70, Pyroxsulam 50, Tribenuron 30, Rimsulfuron 12.5, Flucarbazone 40, Thifensulfuron 7.5
From the text: as §2

[7] = tested on: Hypocotyl derived callus (WT tissues); assay: Callus selection on Foramsulfuron containing medium; format: cell-based, Brassica napus
Description: Five day old seedlings were used for the preparation of hypocotyl segments 7-10 mm in length. Hypocotyl segments were transferred to 14 cm Petri plates containing 75 ml of M-338 [H76] callus induction medium (25 explants/plate). M-338 [H76] medium is MS salts and vitamins (Murashige and Skoog, 1962), 20 g/l sucrose, 0.5 g/l MES, 0.5 g/l adenine sulphate, 5 mg/l silver nitrate, 0.5 mg/l 2,4-D, 0.2 mg/l kinetin and solidified with 5.5 g/l agarose (pH 5.7). Dishes were sealed and cultured at 24° C. with standard light conditions (16 h/day). After 3 weeks, calli developing at the ends of the explants were transferred to fresh M-338 [H76] plates (25 calli/plate). Calli were subcultured to fresh medium every 3 weeks (larger calli cut into two pieces).
Hypocotyl derived callus (9 weeks old) was used for the selection of herbicide resistant mutants. Small pieces of callus were plated on M-338 [H76] medium containing 25 nM of the ALS inhibitor Foramsulfuron (CAS RN 173159-57-4). […] Dishes were cultured at 24° C. with standard light conditions (16 h/day). After 3 weeks, the calli were divided into 2 pieces each and replated on M-338 [H76] medium containing 50 nM Foramsulfuron. […]

Row | SMILES | Percentage phytotoxicity HETO133-HETO134 9 DAA [1] [%] | Percentage phytotoxicity HETO133-HETO134 16 DAA [1] [%] | Percentage phytotoxicity HETO133-HETO134 24 DAA [1] [%] | Percentage phytotoxicity WT 9 DAA [2] [%] | Percentage phytotoxicity WT 16 DAA [2] [%] | Percentage phytotoxicity WT 24 DAA [2] [%] | Percentage phytotoxicity WTS 7 DAA [3] [%] | Percentage phytotoxicity WTS 14 DAA [3] [%] | Percentage phytotoxicity WTS 23 DAA [3] [%] | Percentage phytotoxicity ABILITY 7 DAA [4] [%] | Percentage phytotoxicity standard 14 DAA [4] [%] | Percentage phytotoxicity standard 23 DAA [4] [%] | Percentage phytotoxicity P197S-W574L 7 DAA [5] [%] | Percentage phytotoxicity P197S-W574L 14 DAA [5] [%] | Percentage phytotoxicity P197S-W574L 23 DAA [5] [%] | Percentage phytotoxicity HETO133-HETO134 7 DAA [6] [%] | Percentage phytotoxicity HETO133-HETO134 14 DAA [6] [%] | Percentage phytotoxicity HETO133-HETO134 23 DAA [6] [%] | effect on callus growth ([7]; 25 nM Foramsulfuron in M-338 [H76] medium, starting concentration) | effect on WT tissues ([7]; 250 nM Foramsulfuron in M-338 [H76] medium)
1 | COc1cc(OC)nc(Oc2cccc(Oc3nc(OC)cc(OC)n3)c2C(=O)O)n1 [Bispyribac, bispyribac-sodium] | 56.7 | 88.3 | 92.7 | 76.7 | 98.3 | 100 |  |  |  |  |  |  |  |  |  |  |  |  |  | 
2 | COc1nn(C(=O)[N-]S(=O)(=O)c2ccccc2OC(F)(F)F)c(=O)n1C.[Na+] [Flucarbazone, flucarbazone-sodium] |  |  |  |  |  |  | 85 | 98 | 99 | 85 | 98 | 99 | 10 | 6 | 10 | 0 | 0 | 0 |  | 
3 | COc1cc(OC)nc(NC(=O)NS(=O)(=O)c2cc(NC=O)ccc2C(=O)N(C)C)n1 [Foramsulfuron, foramsulfuron] |  |  |  |  |  |  |  |  |  |  |  |  |  |  |  |  |  |  | partially inhibitory to callus growth but not lethal | clearly inhibitory to WT tissues
4 | COCc1cnc(C2=NC(C)(C(C)C)C(=O)N2)c(C(=O)O)c1 (centres unmarked) [Imazamox, imazamox] | 6.7 | 10 | 0 | 73.3 | 98 | 99 |  |  |  |  |  |  |  |  |  |  |  |  |  | 
5 | COC(=O)c1ccc(CNS(C)(=O)=O)cc1S(=O)(=O)NC(=O)Nc1nc(OC)cc(OC)n1 [Mesosulfuron, mesosulfuron-methyl] | 11.7 | 13.3 | 3.3 | 76.7 | 98 | 96 | 85 | 98 | 99 | 85 | 98 | 99 | 40 | 40 | 45 | 33 | 38 | 35 |  | 
6 | COC(=O)c1ccccc1S(=O)(=O)NC(=O)Nc1nc(C)nc(OC)n1 [Metsulfuron, metsulfuron-methyl] |  |  |  |  |  |  | 86 | 98 | 99 | 86 | 98 | 99 | 45 | 50 | 62 | 50 | 63 | 78 |  | 
7 | CCCOc1nn(C(=O)[N-]S(=O)(=O)c2ccccc2C(=O)OC)c(=O)n1C.[Na+] [Propoxycarbazone, propoxycarbazone-sodium] | 53.3 | 82.7 | 76.7 | 76.7 | 97 | 97.7 | 86 | 98 | 99 | 86 | 98 | 99 | 47 | 52 | 47 | 57 | 72 | 83 |  | 
8 | COc1cc(OC)n2nc(NS(=O)(=O)c3c(C(F)(F)F)ccnc3OC)nc2n1 [Pyroxsulam, pyroxsulam] | 13.3 | 17 | 15 | 76.7 | 98 | 98 | 83 | 98 | 99 | 83 | 98 | 99 | 15 | 16 | 18 | 0 | 0 | 5 |  | 
9 | COC(=O)c1csc(C)c1S(=O)(=O)NC(=O)n1nc(OC)n(C)c1=O [TCM, thiencarbazone-methyl] |  |  |  |  |  |  | 85 | 98 | 99 | 85 | 98 | 99 | 16 | 13 | 17 | 0 | 0 | 3 |  | 
